According to patent US20240124465A1, “MOLECULES AND METHODS RELATED TO TREATMENT OF DISORDERS ASSOCIATED WITH JAK-2 SIGNALING DYSFUNCTION” (ST. JUDE CHILDREN'S RESEARCH HOSPITAL, priority 2020, published 2024):

Tests used:
Format in all cases: cell-based
JAK1 = target: T1, JAK1 (Homo sapiens, UniProt P23458); experiment: Western blot assay, JAK1 protein degradation; details: MHH-CALL-4 cells, vehicle control = 100%
T1 construct: endogenous in cells; host or cells: MHH-CALL-4
Experimental: (§1) Western blot assay: MHH-CALL-4 Cells were washed twice with ice-cold PBS and lysed in RIPA lysis buffer (Sigma) freshly supplemented with Halt™ Protease Inhibitor Cocktail (ThermoFisher) for 15 minutes on ice. The cell pellet was removed by centrifugation at 13,000 g at 4° C. for 15 minutes. Protein concentration was measured by BCA assay (Thermo Fisher Scientific). Proteins were denatured in NuPAGE LDS 4× sample buffer supplemented with reducing agents (Invitrogen). Typically, 10-20 μg of total protein was loaded per lane on a 4%-12% NUPAGE Bis-Tris gradient gel (Invitrogen) and analyzed by standard immunoblotting and imaged using Li—COR Odyssey CLx (LI-COR Biotechnology, Lincoln, NE). To access the protein degradation, the signal of target protein was normalized by the signal of ACBT and the signal of vehicle control was set as 100%. Primary antibodies used were: JAK1 (Cell Signaling #3332S), JAK2 (#3230S), JAK3 (#8827S), TYK2 (#9312S), GSPT1 (#14980S), CRBN (#71810S), IKZF1 (Santa Cruz Biotechnology, SC-398265) and ACBT (Santa Cruz Biotechnology, SC-47778).

GSPT1 = target: T2, GSPT1 (Homo sapiens, UniProt P15170); experiment: Western blot assay, GSPT1 neosubstrate degradation; details: MHHCALL4; 100 nM, 24 h; MHH-CALL-4 cells; vehicle control = 100%
T2 construct: endogenous in cells; host or cells: MHH-CALL-4
Experimental: as §1

JAK2 = experiment: Western blot assay, JAK2 protein degradation; details: MHH-CALL-4 cells, vehicle control = 100%
Experimental: as §1

JAK3 = target: T3, JAK3 (Homo sapiens, UniProt P52333); experiment: Western blot assay, JAK3 protein degradation; details: MHHCALL4; 100 nM, 24 h; MHH-CALL-4 cells; vehicle control = 100%; read-out: Target Protein Degradation (% remaining at 100 nM, 24 h) JAK3
T3 construct: endogenous in cells; host or cells: MHH-CALL-4
T3 sequence (P52333 1-1124): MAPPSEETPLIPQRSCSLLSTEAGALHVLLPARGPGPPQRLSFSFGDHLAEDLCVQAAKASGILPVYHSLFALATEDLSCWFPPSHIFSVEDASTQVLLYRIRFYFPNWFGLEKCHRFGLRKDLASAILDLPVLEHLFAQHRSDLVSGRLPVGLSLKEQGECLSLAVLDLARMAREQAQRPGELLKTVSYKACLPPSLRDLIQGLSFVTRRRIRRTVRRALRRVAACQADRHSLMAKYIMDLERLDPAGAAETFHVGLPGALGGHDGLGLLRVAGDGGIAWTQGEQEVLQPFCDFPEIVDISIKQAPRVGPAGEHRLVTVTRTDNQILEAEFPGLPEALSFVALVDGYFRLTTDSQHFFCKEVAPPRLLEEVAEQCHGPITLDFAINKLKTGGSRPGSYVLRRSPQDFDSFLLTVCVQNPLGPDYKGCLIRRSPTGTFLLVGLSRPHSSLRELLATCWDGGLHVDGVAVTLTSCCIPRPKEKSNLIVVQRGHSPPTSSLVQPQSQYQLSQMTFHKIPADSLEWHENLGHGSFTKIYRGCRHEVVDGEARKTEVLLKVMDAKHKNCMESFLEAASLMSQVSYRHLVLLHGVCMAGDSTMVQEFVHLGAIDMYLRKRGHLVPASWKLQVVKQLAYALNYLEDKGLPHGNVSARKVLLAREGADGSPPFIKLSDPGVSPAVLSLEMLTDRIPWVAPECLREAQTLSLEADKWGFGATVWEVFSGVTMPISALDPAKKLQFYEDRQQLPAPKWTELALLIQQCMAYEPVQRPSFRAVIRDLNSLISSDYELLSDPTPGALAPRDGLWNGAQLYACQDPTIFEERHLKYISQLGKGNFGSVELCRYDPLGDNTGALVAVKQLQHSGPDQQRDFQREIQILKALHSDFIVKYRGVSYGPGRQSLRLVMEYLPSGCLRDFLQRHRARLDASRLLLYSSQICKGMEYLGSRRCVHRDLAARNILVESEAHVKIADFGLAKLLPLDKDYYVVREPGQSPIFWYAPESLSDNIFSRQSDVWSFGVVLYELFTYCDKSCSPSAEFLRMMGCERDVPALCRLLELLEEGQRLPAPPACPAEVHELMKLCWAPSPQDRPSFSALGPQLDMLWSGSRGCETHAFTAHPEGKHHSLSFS
Experimental: as §1

MHH-CALL-4 cells = experiment: Cytotoxicity assay (resazurin, 72 hours); set-up: AUC: unit not given beside the values; details: for EC50: MHHCALL4, resazurin; for AUC: area under the dose-response curve
Experimental: Cytotoxicity assay: MHH-CALL-4 cells were maintained in RPMI1640 medium (Invitrogen) supplemented with 10% FBS (Hyclone), Penicillin/Streptomycin (100 units/mL) and Glutamine (100 μM). 2×10^5 cells were seeded in 100 μl medium/well in 96 well assay plates (Corning 3603). Assays were performed in triplicate; compounds to be screened were added to assay plates from DMSO stock solutions by pin transfer using 50SS pins (V&P Scientific). The assay plates incubated at 37° C. in 5% CO2 for 72 hours. Cells were then incubated for four hours with resazurin (Sigma) solution and read on a Synergy HT plate reader (Biotek, Winooski, VT). High-throughput assay data was analyzed using our in-house Robust Interpretation of Screening Experiments (RISE) application written in Pipeline Pilot (Biovia, v. 17.2.0) and the R program (R Core Team, 2013). All the AUC (area under the dose-response curve) per compound calculated from its dose response curve by RISE protocol. Selected data were plotted and analyzed by GraphPad Prism software v7 using non-linear regression curve fitting.

T2 sequence (P15170 whole entry): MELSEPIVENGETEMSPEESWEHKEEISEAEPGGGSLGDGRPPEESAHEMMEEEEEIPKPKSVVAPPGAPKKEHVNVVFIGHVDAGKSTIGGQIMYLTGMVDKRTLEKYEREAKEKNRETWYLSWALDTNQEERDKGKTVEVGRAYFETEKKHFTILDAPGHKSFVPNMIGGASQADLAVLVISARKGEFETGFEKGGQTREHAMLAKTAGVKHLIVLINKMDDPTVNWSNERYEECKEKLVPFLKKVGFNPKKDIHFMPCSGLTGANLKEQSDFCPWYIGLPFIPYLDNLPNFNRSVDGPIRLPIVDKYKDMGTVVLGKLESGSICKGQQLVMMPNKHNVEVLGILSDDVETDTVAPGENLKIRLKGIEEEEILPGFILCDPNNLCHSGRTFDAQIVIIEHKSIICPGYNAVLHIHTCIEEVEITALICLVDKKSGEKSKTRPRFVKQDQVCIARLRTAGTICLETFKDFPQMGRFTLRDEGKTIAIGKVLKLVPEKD
T1 sequence (P23458 whole entry): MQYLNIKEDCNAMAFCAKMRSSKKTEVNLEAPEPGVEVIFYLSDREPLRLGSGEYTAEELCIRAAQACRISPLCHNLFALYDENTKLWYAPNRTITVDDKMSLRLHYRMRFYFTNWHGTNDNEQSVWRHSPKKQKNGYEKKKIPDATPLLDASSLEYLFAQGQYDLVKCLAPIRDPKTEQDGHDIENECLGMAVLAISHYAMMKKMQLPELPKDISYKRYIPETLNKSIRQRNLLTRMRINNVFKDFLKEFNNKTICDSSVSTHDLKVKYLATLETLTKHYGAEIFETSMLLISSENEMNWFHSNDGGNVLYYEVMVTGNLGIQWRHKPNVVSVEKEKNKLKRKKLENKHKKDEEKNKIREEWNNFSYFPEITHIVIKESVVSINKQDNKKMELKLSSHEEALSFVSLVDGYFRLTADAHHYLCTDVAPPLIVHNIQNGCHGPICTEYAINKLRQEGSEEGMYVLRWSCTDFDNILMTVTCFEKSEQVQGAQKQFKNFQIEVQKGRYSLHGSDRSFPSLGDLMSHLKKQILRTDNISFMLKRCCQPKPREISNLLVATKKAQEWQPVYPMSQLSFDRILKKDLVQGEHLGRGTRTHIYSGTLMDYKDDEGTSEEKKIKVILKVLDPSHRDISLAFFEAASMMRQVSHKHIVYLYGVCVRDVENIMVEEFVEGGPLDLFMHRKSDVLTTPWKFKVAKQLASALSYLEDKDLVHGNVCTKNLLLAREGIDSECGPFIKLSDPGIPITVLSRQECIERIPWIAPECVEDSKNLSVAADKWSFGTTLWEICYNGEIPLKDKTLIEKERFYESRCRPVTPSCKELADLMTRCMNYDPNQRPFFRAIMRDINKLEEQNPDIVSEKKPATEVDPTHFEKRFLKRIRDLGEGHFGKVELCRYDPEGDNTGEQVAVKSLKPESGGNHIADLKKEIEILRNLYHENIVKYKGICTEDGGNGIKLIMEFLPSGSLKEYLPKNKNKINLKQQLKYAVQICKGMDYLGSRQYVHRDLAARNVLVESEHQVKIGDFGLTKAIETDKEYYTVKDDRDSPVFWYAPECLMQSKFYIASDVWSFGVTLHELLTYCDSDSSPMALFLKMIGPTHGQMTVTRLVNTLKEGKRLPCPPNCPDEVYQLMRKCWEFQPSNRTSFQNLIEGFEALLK

Row | SMILES | Target Protein Degradation (% remaining at 100 nM, 24 h) JAK1 (JAK1) [% remaining] | remaining activity at 0.1 µM (GSPT1) [%] | remaining activity at 0.1 µM (JAK3) [%] | Target Protein Degradation (% remaining at 100 nM, 24 h) JAK2 (JAK2) [% remaining] | EC50 (MHH-CALL-4 cells) [nM] | AUC (MHH-CALL-4 cells)
1 | CCS(=O)(=O)N1CC(CC#N)(n2cc(-c3nc(Nc4ccc(C(=O)NCCCCNc5cccc(C6CCC(=O)NC6=O)c5)cc4)nc4[nH]ccc34)cn2)C1 (stereo not drawn) [Compound 4] | 17 | 124 | 44 | 30 | 2.1 | 120
2 | CCS(=O)(=O)N1CC(CC#N)(n2cc(-c3nc(Nc4ccc(C(=O)NCCOCCOc5ccc(C6CCC(=O)NC6=O)cc5)cc4)nc4[nH]ccc34)cn2)C1 (stereo not drawn) [Compound 11] | 110 | 130 | 70 | 90 | > 10000 | 
3 | CCS(=O)(=O)N1CC(CC#N)(n2cc(-c3nc(Nc4ccc(C(=O)NCCCCN5CCN(c6ccc(C7CCC(=O)NC7=O)cc6)CC5)cc4)nc4[nH]ccc34)cn2)C1 (stereo not drawn) [Compound 19] | 87 | 129 | 112 | 34 | 1450 | 225
4 | CCS(=O)(=O)N1CC(CC#N)(n2cc(-c3nc(Nc4ccc(C(=O)NCCCCN5CCN(c6ccc7c(c6)C(=O)N(C6CCC(=O)NC6=O)C7=O)CC5)cc4)nc4[nH]ccc34)cn2)C1 (stereo not drawn) [Compound 20] | 138 | 128 | 102 | 40 | 13.6 | 123
5 | N#CC[C@H](C1CCCC1)n1cc(-c2nc(Nc3ccc(C(=O)NCCN4CCN(c5ccc6c(c5)C(=O)N(C5CCC(=O)NC5=O)C6=O)CC4)cc3)nc3[nH]ccc23)cn1 (stereo partly drawn) [Compound 22] | 72 | 103 | 61 | 36 | 18.1 | 141
6 | N#CC[C@H](C1CCCC1)n1cc(-c2nc(Nc3ccc(C(=O)NCCCN4CCN(c5ccc(C6CCC(=O)NC6=O)cc5)CC4)cc3)nc3[nH]ccc23)cn1 (stereo partly drawn) [Compound 38, 4-((4-(1-((R)-2-cyano-1-cyclopentylethyl)-1H-pyrazol-4-yl)-7H-pyrrolo[2,3-d]pyrimidin-2-yl)amino)-N-(3-(4-(4-(2,6-dioxopiperidin-3-yl)phenyl)piperazin-1-yl)propyl)benzamide] |  | 99 | 41 | 48 | 2.6 | 122
7 | CCCn1cc(-c2nc(Nc3ccc(C(=O)NCCCCOc4ccc(C5CCC(=O)NC5=O)cc4)cc3)nc3[nH]ccc23)cn1 (stereo not drawn) [Compound 43, N-(4-(4-(2,6-dioxopiperidin-3-yl)phenoxy)butyl)-4-((4-(1-propyl-1H-pyrazol-4-yl)-7H-pyrrolo[2,3-d]pyrimidin-2-yl)amino)benzamide] | 123 | 37 | 79 | 76 |  | 
8 | CCCn1cc(-c2nc(Nc3ccc(C(=O)NCCCN4CCN(c5ccc(C6CCC(=O)NC6=O)cc5)CC4)cc3)nc3[nH]ccc23)cn1 (stereo not drawn) [Compound 44, N-(3-(4-(4-(2,6-dioxopiperidin-3-yl)phenyl)piperazin-1-yl)propyl)-4-((4-(1-propyl-JH-pyrazol-4-yl)-7H-pyrrolo[2,3-d]pyrimidin-2-yl)amino)benzamide] | 104 | 81 | 74 | 64 |  | 
9 | CCS(=O)(=O)N1CC(CC#N)(n2cc(-c3nc(Nc4ccc(C(=O)NCC5CCN(c6ccc(C7CCC(=O)NC7=O)cc6)CC5)cc4)nc4[nH]ccc34)cn2)C1 (stereo not drawn) [Compound 45, 4-((4-(1-(3-(cyanomethyl)-1-(ethylsulfonyl)azetidin-3-yl)-1H-pyrazol-4-yl)-7H-pyrrolo[2,3-d]pyrimidin-2-yl)amino)-N-((1-(4-(2,6-dioxopiperidin-3-yl)phenyl)piperidin-4-yl)methyl)benzamide] | 107 | 101 | 29 | 21 |  | 

Now from value to compound, other results behind:

Row | Target Protein Degradation (% remaining at 100 nM, 24 h) JAK1 (JAK1) [% remaining] | remaining activity at 0.1 µM (GSPT1) [%] | remaining activity at 0.1 µM (JAK3) [%] | SMILES | Target Protein Degradation (% remaining at 100 nM, 24 h) JAK2 (JAK2) [% remaining] | EC50 (MHH-CALL-4 cells) [nM] | AUC (MHH-CALL-4 cells)
10 | 128 | 84 | 37 | CCS(=O)(=O)N1CC(CC#N)(n2cc(-c3nc(Nc4ccc(C(=O)NCCCCCCNc5ccc(C6CCC(=O)NC6=O)cc5)cc4)nc4[nH]ccc34)cn2)C1 (stereo not drawn) [Compound 1] | 34 | 0.8 | 231
11 | 94 | 84 | 79 | CCS(=O)(=O)N1CC(CC#N)(n2cc(-c3nc(Nc4ccc(C(=O)NCCCCCCNc5cccc(C6CCC(=O)NC6=O)c5)cc4)nc4[nH]ccc34)cn2)C1 (stereo not drawn) [Compound 3] | 56 | 1.7 | 248
12 | 44 |  | 54 | CCS(=O)(=O)N1CC(CC#N)(n2cc(-c3nc(Nc4ccc(C(=O)NCCCCCNc5cccc(C6CCC(=O)NC6=O)c5)cc4)nc4[nH]ccc34)cn2)C1 (stereo not drawn) [Compound 6] | 37 | 5.9 | 136
13 | 78 | 63 | 50 | CCS(=O)(=O)N1CC(CC#N)(n2cc(-c3nc(Nc4ccc(C(=O)NCCCCCNc5ccc(C6CCC(=O)NC6=O)cc5)cc4)nc4[nH]ccc34)cn2)C1 (stereo not drawn) [Compound 7] | 29 | 13.9 | 248
